Reference: ChEMBL document CHEMBL5046316, “Structure-Based Optimization of a Fragment-like TLR8 Binding Screening Hit to an In Vivo Efficacious TLR7/8 Antagonist” (ACS Med Chem Lett, 2022)

Experiments:
[1] = molecular target: T1, Toll-like receptor 8 (Homo sapiens, UniProt Q9NR97); test: Antagonist activity at human TLR8 expressed in Drosophila S2 by TR-FRET assay
T1 sequence (Q9NR97 whole entry): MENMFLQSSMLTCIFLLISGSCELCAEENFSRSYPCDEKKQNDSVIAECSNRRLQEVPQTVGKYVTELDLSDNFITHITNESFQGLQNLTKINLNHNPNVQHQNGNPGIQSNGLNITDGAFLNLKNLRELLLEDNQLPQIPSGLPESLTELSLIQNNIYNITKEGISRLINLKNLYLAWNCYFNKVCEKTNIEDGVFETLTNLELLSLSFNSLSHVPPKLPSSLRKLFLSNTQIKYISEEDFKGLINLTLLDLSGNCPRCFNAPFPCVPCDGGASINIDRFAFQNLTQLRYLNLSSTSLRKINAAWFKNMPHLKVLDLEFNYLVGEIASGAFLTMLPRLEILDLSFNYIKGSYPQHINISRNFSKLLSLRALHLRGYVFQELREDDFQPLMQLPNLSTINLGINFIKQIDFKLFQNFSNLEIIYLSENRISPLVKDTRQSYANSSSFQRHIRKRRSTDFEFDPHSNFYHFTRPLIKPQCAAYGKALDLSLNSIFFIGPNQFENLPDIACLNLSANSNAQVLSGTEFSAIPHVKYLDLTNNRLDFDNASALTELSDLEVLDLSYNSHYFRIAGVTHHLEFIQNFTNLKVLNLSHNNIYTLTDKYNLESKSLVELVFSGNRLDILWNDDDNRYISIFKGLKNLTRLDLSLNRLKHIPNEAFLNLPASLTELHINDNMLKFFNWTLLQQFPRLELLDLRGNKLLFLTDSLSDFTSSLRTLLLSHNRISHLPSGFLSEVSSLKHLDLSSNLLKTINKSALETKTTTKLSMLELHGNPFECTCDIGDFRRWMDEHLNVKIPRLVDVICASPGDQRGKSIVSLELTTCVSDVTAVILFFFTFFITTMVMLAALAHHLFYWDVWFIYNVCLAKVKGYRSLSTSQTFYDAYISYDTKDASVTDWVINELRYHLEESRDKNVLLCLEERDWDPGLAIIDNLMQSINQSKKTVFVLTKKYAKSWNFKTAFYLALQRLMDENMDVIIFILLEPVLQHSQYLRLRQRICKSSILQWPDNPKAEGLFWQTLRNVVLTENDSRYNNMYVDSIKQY

[2] = Dissociation constant, pKa of the compound by UV spectrometric titration method; format: physicochemical
[3] = molecular target: T1, Toll-like receptor 8; test: Antagonist activity at human TLR8 expressed in human PBMC cells assessed as inhibition of ssRNA stimulated TNF level preincubated for 30 mins followed by stimulation and measured after 20 hrs by multiplate reader assay; format: cell-based
[4] = molecular target: T2, Toll-like receptor 7 (Homo sapiens, UniProt Q9NYK1); test: Antagonist activity at human TLR7 expressed in human PBMC cells assessed as inhibition of ssRNA stimulated IFNalpha level preincubated for 30 mins followed by stimulation and measured after 20 hrs by AlphaLISA method; format: cell-based
T2 sequence (Q9NYK1 whole entry): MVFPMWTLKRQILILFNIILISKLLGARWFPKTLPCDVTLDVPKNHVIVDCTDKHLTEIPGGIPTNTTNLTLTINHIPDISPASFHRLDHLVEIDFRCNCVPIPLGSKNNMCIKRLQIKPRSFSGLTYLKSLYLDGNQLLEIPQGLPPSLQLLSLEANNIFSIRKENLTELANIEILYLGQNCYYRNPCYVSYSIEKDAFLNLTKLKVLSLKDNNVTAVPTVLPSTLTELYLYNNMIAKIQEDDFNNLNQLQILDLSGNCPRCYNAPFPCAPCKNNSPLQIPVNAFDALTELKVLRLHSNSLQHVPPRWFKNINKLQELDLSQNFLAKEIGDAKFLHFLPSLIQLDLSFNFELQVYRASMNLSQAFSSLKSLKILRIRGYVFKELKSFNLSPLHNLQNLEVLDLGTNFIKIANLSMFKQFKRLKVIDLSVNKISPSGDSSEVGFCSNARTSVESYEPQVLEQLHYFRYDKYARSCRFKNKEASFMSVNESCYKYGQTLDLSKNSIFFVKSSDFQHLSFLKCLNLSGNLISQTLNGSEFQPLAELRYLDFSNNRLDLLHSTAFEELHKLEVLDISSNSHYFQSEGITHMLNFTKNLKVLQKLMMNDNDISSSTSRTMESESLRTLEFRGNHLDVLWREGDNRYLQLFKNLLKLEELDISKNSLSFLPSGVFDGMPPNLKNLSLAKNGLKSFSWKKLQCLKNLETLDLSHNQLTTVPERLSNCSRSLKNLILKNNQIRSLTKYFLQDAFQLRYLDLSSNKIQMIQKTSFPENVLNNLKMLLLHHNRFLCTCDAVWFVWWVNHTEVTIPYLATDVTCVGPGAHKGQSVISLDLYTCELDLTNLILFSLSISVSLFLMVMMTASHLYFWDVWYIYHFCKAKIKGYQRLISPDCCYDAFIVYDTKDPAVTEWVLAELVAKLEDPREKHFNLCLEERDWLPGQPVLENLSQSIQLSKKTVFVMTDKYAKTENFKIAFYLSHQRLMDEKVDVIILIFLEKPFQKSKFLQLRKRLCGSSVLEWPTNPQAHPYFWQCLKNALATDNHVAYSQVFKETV

[5] = molecular target: Voltage-gated inwardly rectifying potassium channel KCNH2 (Homo sapiens, UniProt Q12809); test: Inhibition of human ERG; format: toxicity
Sequence of Voltage-gated inwardly rectifying potassium channel KCNH2 (Q12809 whole entry): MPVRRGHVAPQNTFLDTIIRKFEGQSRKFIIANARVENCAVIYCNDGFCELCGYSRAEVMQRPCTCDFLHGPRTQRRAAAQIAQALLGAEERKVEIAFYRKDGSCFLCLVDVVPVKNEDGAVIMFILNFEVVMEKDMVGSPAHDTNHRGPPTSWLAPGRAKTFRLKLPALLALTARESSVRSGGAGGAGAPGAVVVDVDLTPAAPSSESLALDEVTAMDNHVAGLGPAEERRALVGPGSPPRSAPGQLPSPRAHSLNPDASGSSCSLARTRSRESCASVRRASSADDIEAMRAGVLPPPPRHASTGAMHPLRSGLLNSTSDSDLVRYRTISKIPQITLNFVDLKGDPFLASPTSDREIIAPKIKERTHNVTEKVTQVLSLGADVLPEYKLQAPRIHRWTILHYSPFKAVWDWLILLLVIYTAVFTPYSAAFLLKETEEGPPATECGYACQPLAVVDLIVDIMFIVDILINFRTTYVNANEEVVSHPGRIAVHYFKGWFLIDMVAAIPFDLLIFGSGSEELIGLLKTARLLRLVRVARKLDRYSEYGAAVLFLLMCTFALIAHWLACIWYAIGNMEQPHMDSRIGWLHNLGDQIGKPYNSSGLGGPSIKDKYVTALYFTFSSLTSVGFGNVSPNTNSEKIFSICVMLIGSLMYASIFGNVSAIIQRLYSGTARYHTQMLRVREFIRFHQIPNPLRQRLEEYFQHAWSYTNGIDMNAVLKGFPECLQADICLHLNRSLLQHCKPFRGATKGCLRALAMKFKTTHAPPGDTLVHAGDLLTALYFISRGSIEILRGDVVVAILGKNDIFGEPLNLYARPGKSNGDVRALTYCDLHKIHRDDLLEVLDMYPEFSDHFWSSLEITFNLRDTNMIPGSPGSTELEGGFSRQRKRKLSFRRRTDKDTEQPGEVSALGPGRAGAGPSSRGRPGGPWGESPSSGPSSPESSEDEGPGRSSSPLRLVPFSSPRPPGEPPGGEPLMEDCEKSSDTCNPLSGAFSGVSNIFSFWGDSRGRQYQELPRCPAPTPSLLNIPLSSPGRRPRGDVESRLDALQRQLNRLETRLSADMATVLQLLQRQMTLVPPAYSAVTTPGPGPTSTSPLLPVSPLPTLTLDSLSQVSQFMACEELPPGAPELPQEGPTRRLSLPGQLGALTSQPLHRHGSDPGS

[6] = molecular target: Cytochrome P450 3A4 (Homo sapiens, UniProt P08684); test: Inhibition of CYP3A4 (unknown origin); format: ADME
Sequence of Cytochrome P450 3A4 (P08684 whole entry): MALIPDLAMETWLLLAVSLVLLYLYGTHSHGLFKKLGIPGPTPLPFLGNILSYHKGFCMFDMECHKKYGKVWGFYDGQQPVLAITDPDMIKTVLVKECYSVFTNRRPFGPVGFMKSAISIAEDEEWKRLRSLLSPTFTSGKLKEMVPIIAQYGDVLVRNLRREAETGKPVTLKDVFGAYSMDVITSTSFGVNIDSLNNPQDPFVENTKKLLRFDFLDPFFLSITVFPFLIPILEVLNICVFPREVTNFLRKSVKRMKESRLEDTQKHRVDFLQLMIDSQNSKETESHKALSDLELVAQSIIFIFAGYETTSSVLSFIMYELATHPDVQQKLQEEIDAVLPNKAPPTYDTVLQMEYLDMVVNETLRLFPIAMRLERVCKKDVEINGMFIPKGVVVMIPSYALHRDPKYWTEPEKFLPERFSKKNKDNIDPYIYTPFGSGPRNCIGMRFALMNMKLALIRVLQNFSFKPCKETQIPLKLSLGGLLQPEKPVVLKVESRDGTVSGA

[7] = Dose normalized AUC in C57BL/6 mouse at 3 mg/kg, po and 1 mg/kg,iv administered as cassette dose measured upto 24 hrs by LC/MS/MS analysis; format: ADME, organism-based; design: dose 3 mg/kg, time <=24; details: in vivo
[8] = Octanol/water partition coefficient, logD of compound at pH 7.4 measured after 4 hrs by shake flask method; format: physicochemical
[9] = MRT in C57BL/6 mouse at 3 mg/kg, po or 1 mg/kg, iv administered as cassette dose measured upto 24 hrs by LC/MS/MS analysis; format: ADME, organism-based; details: in vivo
[10] = Volume of distribution at steady state in C57BL/6 mouse at 3 mg/kg, po or 1 mg/kg, iv administered as cassette dose measured upto 24 hrs by LC/MS/MS analysis; format: ADME, organism-based; details: in vivo, read-out: Vdss
[11] = Oral bioavailability in C57BL/6 mouse at 3 mg/kg administered as cassette dose measured upto 24 hrs by LC/MS/MS analysis; format: ADME, organism-based; details: in vivo
[12] = Clearance in C57BL6 mouse at 3 mg/kg, po or 1mg/kg, iv administered as cassette dose measured upto 24 hrs by LC/MS/MS analysis; format: ADME, organism-based; details: in vivo
[13] = Dose normalized Cmax in C57BL/6 mouse at 3 mg/kg, po and 1 mg/kg, iv administered as cassette dose measured upto 24 hrs by LC/MS/MS analysis; format: ADME, organism-based; details: in vivo
[14] = Permeability of compound in dog MDCK cells; format: ADME, cell-based, Canis lupus familiaris; details: read-out: permeability
[15] = molecular target: T3, Toll-like receptor 9 (Homo sapiens, UniProt Q9NR96); test: Antagonist activity at human TLR9 expressed in human PBMC cells assessed as inhibition of ODN2216 stimulated IFNalpha level preincubated for 30 mins followed by stimulation and measured after 20 hrs by AlphaLISA method; format: cell-based
T3 sequence (Q9NR96 whole entry): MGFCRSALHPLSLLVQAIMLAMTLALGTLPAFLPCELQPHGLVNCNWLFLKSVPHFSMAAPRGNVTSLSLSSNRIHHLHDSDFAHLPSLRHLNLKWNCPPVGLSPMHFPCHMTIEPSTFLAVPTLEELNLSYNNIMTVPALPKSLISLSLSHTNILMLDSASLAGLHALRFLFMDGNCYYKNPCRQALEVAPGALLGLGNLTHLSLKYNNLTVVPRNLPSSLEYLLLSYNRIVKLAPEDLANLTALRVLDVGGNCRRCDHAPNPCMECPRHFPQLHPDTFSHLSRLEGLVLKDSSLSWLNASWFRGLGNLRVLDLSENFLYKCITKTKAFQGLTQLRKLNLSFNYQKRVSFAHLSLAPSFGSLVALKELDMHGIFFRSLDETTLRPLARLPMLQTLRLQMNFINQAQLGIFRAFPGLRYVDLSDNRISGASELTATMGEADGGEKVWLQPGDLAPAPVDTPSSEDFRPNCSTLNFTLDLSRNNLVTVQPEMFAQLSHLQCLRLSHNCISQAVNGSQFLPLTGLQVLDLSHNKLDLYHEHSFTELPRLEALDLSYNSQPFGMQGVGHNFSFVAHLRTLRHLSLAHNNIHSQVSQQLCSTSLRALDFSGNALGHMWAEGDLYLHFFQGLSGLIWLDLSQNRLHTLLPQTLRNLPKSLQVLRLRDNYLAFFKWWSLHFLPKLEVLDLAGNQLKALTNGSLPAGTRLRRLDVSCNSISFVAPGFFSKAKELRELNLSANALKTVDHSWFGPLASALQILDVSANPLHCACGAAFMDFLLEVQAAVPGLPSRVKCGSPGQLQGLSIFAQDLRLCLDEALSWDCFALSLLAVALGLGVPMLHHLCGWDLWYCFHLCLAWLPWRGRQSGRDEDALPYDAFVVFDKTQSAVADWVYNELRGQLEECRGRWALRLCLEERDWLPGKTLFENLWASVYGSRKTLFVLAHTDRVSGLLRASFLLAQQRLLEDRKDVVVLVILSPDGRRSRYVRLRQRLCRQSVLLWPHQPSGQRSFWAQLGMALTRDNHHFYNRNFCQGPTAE

[16] = molecular target: Toll-like receptor 4 (Homo sapiens, UniProt O00206); test: Antagonist activity at human TLR4 expressed in human PBMC cells assessed as inhibition of LPS stimulated TNF level preincubated for 30 mins followed by stimulation and measured after 20 hrs by multiplate reader assay; format: cell-based
Sequence of Toll-like receptor 4 (O00206 whole entry): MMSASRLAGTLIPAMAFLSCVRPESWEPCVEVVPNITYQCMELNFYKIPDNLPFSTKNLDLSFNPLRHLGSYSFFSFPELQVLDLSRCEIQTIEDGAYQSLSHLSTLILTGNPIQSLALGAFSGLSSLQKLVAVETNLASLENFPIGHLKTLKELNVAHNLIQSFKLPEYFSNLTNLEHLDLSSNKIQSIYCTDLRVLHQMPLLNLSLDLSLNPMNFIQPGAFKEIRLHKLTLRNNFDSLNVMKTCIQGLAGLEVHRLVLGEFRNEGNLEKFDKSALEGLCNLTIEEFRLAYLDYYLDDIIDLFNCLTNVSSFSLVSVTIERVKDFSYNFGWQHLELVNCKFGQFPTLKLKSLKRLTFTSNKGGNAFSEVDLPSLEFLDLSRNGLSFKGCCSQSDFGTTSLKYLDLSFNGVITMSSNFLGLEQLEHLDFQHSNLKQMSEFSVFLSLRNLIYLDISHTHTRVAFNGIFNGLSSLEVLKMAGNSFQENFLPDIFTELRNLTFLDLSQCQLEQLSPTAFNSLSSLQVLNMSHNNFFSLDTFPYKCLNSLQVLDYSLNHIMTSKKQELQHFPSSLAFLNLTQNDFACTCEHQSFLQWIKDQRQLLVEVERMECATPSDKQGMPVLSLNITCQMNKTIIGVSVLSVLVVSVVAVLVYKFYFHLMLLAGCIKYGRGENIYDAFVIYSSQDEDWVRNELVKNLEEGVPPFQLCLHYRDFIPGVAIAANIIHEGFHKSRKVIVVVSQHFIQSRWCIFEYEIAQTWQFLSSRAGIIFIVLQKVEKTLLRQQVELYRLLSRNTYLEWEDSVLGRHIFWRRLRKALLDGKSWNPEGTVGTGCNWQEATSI

Compound	IC50 [1] [nM]	pKa [2]	IC50 [3] [nM]	IC50 [4] [nM]	also measured
COc1cc2c(C(=O)N3CCN(C)CC3)n[nH]c2cc1-c1cc(C)nc(C)c1	23	6.7	2.5		
COc1cc2c(C(=O)N3CCN(C)CC3)n[nH]c2cc1-c1ccnc(C)c1F	14	3.7	1.2	> 980	
Cc1cc(-c2cc3[nH]nc(N[C@H]4CCNC[C@@H]4F)c3cc2C2CC2)cc(C)n1		6.7		9	
Cc1nccc(-c2cc3[nH]nc(N[C@H]4CCNC[C@@H]4F)c3cc2C2CC2)c1F		3.9		0.1	IC50 [5]: 19000 nM; IC50 [6]: 4500 nM; AUC [7]: 635 nM·h/mg/kg; logD at 4 h [8]: 2.5; MRT [9]: 1.8 h; Vd [10]: 3.1 L/kg; bioavailability [11]: 43%; clearance [12]: 1.68 L/h/kg; Cp(f)/dose [13]: 155 nM/mg/kg
COc1cc2cc[nH]c2cc1-c1ccncc1	2	5.8	3600	1700	Papp [14]: 330 nm/s; IC50 [15]: > 3600 nM; IC50 [16]: > 10000 nM
COc1cc2c(C(=O)N3CCN(C)CC3)n[nH]c2cc1-c1ccncc1		5.3		220	
COc1cc2c(NC3CCN(C)CC3)n[nH]c2cc1-c1cc(C)nc(C)c1		6.7			
Cc1cc2c(NC3CCN(C)CC3)n[nH]c2cc1-c1ccnc(C)c1F		3.9		1	
COc1cc2c(NC3CCN(C)CC3)n[nH]c2cc1-c1ccnc(C)c1F		4			
COc1cc2c(NC3CCN(C)CC3)n[nH]c2cc1-c1ccncc1		5.2		3	
COc1cc(-c2cc3[nH]nc(NC4CCN(C)CC4)c3cc2OC)ccn1		3.4		11	
COc1cc2cn[nH]c2cc1-c1ccncc1	51	5.4	> 9300		Papp [14]: 380 nm/s
Cc1nccc(-c2cc3[nH]nc(NC4CCN(C)CC4)c3cc2C2CC2)c1F	3.6	3.9	0.08	0.39	IC50 [5]: 11000 nM; IC50 [6]: > 25000 nM; AUC [7]: 485 nM·h/mg/kg; logD at 4 h [8]: 2.5; MRT [9]: 1.5 h; Vd [10]: 4.4 L/kg; bioavailability [11]: 53%; clearance [12]: 2.94 L/h/kg; Cmax/dose [13]: 113 nM/mg/kg
